In patent US7531500B2, “Preventing airway mucus production by administration of EGF-R antagonists” (The Regents of the University of California, priority 1998, dated 2009):

Key:
NCI-H292 cells = test: Alcian blue/PAS staining of NCI-H292 cells for mucin glycoproteins; assay type: cell-based, human; details: TNFα 20 ng/ml; EGF, TGFα each 25 ng/ml
Procedure: Cell culture. A human pulmonary mucoepidermoid carcinoma cell line, NCI-H292 cells, were grown in RPMI11640 medium containing 10% fetal bovine serum, penicillin (100 U/ml), streptomycin (100 μg/ml) at 37° C. in a humidified 5% CO2 water-jacketed incubator. […] In inhibition studies with an EGF-R tyrosine kinase inhibitor, BIBX1522 (10 μg/ml, generously provided by Boehringer Ingelheim Inc., Ingelheim, Germany), cells were pretreated with BIBX1522 30 min before adding growth factors. After incubation, cells grown in a T-75 flask were used for total RNA extraction or protein extraction, and 8-chamber slides were used for Alcian blue/PAS-staining to visualize mucins.

EGFR = EGFR (Homo sapiens, UniProt P00533); test: Immunoblotting for activated EGFR in NCI-H292 cells; assay type: cell-based; parameters: NCI-H292 cells expressed EGSR mRNA constitutively; endogenous in cells; host or cells: NCI-H292 (human pulmonary mucoepidermoid carcinoma); details: stimulated 15 minutes
Procedure: Cells were serum-starved for 24 hours and then stimulated with cigarette smoke solution or with TGFα for 15 minutes. After stimulation, cells were lysed with lysis buffer (20 mM sodium phosphate, pH 7.8, 150 mM NaCl, 5 mM EDTA, 50 mM HEPES, 1% Triton-X100, 50 mM NaF, 1 mM sodium orthovanadate, 5 mM PMSF, and 10 μg/ml each of leupeptin and aprotinin) and incubated for 30 minutes at 4° C. To remove insoluble materials, cell lysates were centrifuged at 14,000 rpm for 5 minutes at 4° C. Aliquots of supernatants containing equal amounts of protein were suspended in SDS sample buffer and boiled for 5 minutes. Proteins were separated by SDS-PAGE in 4-15% acrylamide gel. The resulting gel was equilibrated in the transfer buffer: 25 mM Tris-HCl, 192 mM glycine, 20% (vol/vol) methanol, pH 8.3. The proteins were then transferred electrophoretically to nitrocellulose membranes, which were incubated with 5% fat-free skimmed milk in PBS containing 0.05% Tween 20 for 1 hour and then incubated with anti-phospho-specific EGFR mAb (2 μg/ml, Calbiochem) overnight. Bound Ab was visualized according to a standard protocol for the avidin-biotin-alkaline phosphatase complex method (ABC kit, Vector Laboratories, Burlingame, Calif.).

pathogen-free rats = test: Goblet cell production in pathogen-free rats after tracheal instillation of TNFα and EGF-R ligands; assay type: in vivo, rat
Procedure: Healthy rats. Rats were anesthetized with methohexital sodium (Brevital sodium, 50 mg/kg, i.p.; Eli Lilly & Co., Indianapolis, Ind.) and allowed to breathe spontaneously. […] In each study, sterile PBS (100 μl) was instilled into the trachea as control. […] Rats were pretreated with BIBX1522 (3, 10 or 30 mg/kg, i.p.), 1 h before and 24 h after instillation of TGFα. The trachea and lungs were removed for examination 48 h after the instillation of TGFα.
Tissue preparation. At preselected times during anesthesia, the systemic circulation was perfused with 1% paraformaldehyde in DEPC-treated PBS at a pressure of 120 mmHg. The trachea was then removed and placed in 4% paraformaldehyde for 24 h. After fixation, trachea and lungs were embedded in either JB-4 plus monomer solution A for cell analysis or O.C.T. compound (Sakura Finetek U.S.A., Inc., Torrance, Calif.) for immunohistochemistry and in situ hybridization. The embedded tissues were cut as cross sections ([…] thick) and placed on slides.
Cell analysis. We counted the total number of epithelial cells by counting epithelial cell nuclei over 2 mm of the basal lamina with an oil immersion objective lens (×1000 magnification). The linear length of the basal lamina under each analyzed region of epithelium was determined by tracing the contour of the digitized image of the basal lamina. After instillation of stimuli, “developing” goblet cells form. These cells have Alcian blue/PAS-positive granules, but the size of granules is small, and the number of cytoplasmic granules is few. We call these “developing” goblet cells “pre-goblet cells”, a stage before cells become mature goblet cells. Goblet cells are tall, cuboidal, goblet to low columnar in shape, with abundant Alcian blue/PAS-stained granules filling most of the cytoplasm between the nucleus and the luminal surface. Pre-goblet cells are defined as cells with smaller mucus-stained areas (<1/3 height in epithelium from basement membrane to luminal surface) or with sparsely and lightly Alcian blue/PAS-stained, small granules. Ciliated cells are recognized by their ciliated borders, lightly stained cytoplasm, and large round nuclei. Non-granulated secretory cells are columnar in shape and extend from the lumen to the basal lamina. The cytoplasm stains light pink color, and a few tiny PAS-positive and Alcian blue-negative granules are observed in the cytoplasm. Basal cells are small flattened cells with a large nucleus, located just above the basal lamina but not reaching the airway lumen.
Quantification of goblet cell production. Goblet cell production, was determined by the volume density of Alcian blue/PAS-stained mucosubstances on the mucosal surface epithelium using a semi-automatic imaging system described elsewhere (Weber et al. (1984) Science 224:294-297). We measured the Alcian blue/PAS-positive stained area and the total epithelial area and expressed the data as the percentage of the total area stained by Alcian blue-PAS. The analysis was performed with the public domain NIH Image program (developed at the U.S. National Institute of Health and available from the Internet by anonymous FTP from zippy.nimh.gov or on floppy disk from the National Technical Information Service, Springfield, Va., part number PB95-500195GEI).
Immunohistochemical localization of EGF-R in rat epithelium. The localization of EGF-R was examined using immunchistochemical staining with an antibody to EGF-R (Calbiochem, San Diego, Calif.) in frozen sections of rat trachea. After perfusion with 1% paraformaldehyde in PBS, tissues were placed in 4% paraformaldehyde in PBS for 1 h and then removed in 30% sucrose for cryoprotection overnight. Tracheas were embedded in O.C.T. compound (Sakura Finetek U.S.A., Inc., Torrance, Calif.) and frozen. Frozen sections (5 μm) were cut and placed on glass slides (Superfrost Plus, Fisher Scientific, Pittsburgh, Pa.). Immunostaining was performed similarly to the in vitro studies.

Substance: TGFα: transforming growth factor alpha, EGF-R ligand (recombinant human; rat synthetic in vivo)
- PAS-positive staining on incubation with mediator (NCI-H292 cells): increased PAS-positive staining
- EGFR-specific tyrosine phosphorylation (EGFR): increased
- Goblet cells in tracheal epithelium (pathogen-free rats; TGFα 250 ng alone or 24 h after TNFα 200 ng, i.t., 48 h later, counted over 2 mm basal lamina, mean ± SEM, 5 rats): 5.8 ± 1.2
- % of AB/PAS-stained area (pathogen-free rats; as E9): 6.8 ± 1.9%
- Basal cells in tracheal epithelium (pathogen-free rats; as E9): 56.8 ± 2.3
- Ciliated cells in tracheal epithelium (pathogen-free rats; as E9): 54.6 ± 2.3
- Indeterminate cells in tracheal epithelium (pathogen-free rats; as E9): 2.0 ± 0.4
- Pre-goblet cells in tracheal epithelium (pathogen-free rats; as E9): 12.8 ± 1.6
- Secretory cells in tracheal epithelium (pathogen-free rats; as E9): 72.2 ± 4.0
- Total cells in tracheal epithelium (pathogen-free rats; as E9): 204.2 ± 3.3
